Laboratory results taken from ChEMBL document CHEMBL1154224, “Spiropiperidine CCR5 antagonists” (Bioorg Med Chem Lett, 2009).

Assays:
[1] = target: C-C chemokine receptor type 5 (Homo sapiens, UniProt P51681); experiment: Displacement of [125I]RANTES from human CCR5 receptor co-transfected with Galphai6 in CHO cells; type: cell-based
[2] = tested on: Human immunodeficiency virus 1; experiment: Antiviral activity against recombinant HIV1 virus infected in human JC53BL cells after 3 days; type: functional, organism-based; conditions: Human immunodeficiency virus 1, JC53BL, 72 h
[3] = (§1) Intrinsic clearance in human liver microsomes assessed per mg of protein; type: ADME, Microsome; conditions: liver microsomes
[4] = (§2) Intrinsic clearance in rat liver microsomes assessed per mg of protein; type: ADME, Microsome; conditions: liver microsomes
[5] = Efflux ratio of permeability from basolateral to apical to apical to basolateral side in human 21 days cultured Caco-2 cells; type: ADME, cell-based
[6] = Permeability from apical to basolateral side of the human 21 days cultured Caco-2 cells; type: ADME, cell-based; conditions: read-out: permeability
[7] = tested on: Liver microsomes; experiment: as §1; type: ADME, Microsome; conditions: microsomes
[8] = tested on: Liver microsomes; experiment: as §2; type: ADME, Microsome; conditions: microsomes
[9] = Oral bioavailability in rat at 10 mg/kg; type: ADME, organism-based; conditions: in vivo
[10] = organism: Homo sapiens; experiment: Hepatic blood flow in human; type: ADME, organism-based, Liver

Chain of C-C chemokine receptor type 5 (P51681 whole entry): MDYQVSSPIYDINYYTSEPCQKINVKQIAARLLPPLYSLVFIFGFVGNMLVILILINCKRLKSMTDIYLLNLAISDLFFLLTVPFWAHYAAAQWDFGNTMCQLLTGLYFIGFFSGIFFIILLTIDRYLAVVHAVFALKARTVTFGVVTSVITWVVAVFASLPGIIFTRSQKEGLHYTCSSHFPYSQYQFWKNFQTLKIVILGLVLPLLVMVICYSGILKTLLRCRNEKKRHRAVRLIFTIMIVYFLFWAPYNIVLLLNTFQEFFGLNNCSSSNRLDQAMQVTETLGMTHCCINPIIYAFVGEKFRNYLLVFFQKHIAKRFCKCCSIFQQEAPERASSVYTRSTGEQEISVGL

Row | Compound | IC50 [1] [nM] | IC50 [2] [nM] | microsomal CLint [3] [µL/min/mg] | other results
1 | CCCCC1N(CC2CCCCC2)C(=O)OC12CCN(C1(C)CCN(C(=O)c3c(C)cccc3C)CC1)CC2 (centres undefined) | 10 | < 1.2 | 526 | microsomal CLint [4]: 523 µL/min/mg; efflux ratio [5]: 0.4; Papp A→B [6]: 14 ×10⁻⁶ cm/s
2 | CCCC[C@H]1CN(CC2CCOCC2)C(=O)OC12CCN(C1(C)CCN(C(=O)c3c(C)cc(=O)oc3C)CC1)CC2 | 12 | 3 | 36 | 
3 | CCCCC1N(CC2CCOCC2)C(=O)OC12CCN(C1(C)CCN(C(=O)c3c(C)ncnc3C)CC1)CC2 (centres undefined) | 58 | 375 | 27 | efflux ratio [5]: 31; Papp A→B [6]: 0.6 ×10⁻⁶ cm/s
4 | CCCC[C@H]1CN(CC2CCOCC2)C(=O)OC12CCN(C1(C)CCN(C(=O)c3c(C)ccnc3C)CC1)CC2 | 61 | 4 | 33 | 
5 | CCCCC1N(CC2CCOCC2)C(=O)OC12CCN(C1CCN(C(=O)c3c(C)cccc3C)CC1)CC2 (centres undefined) | 24 | > 625 |  | 
6 | CCCC[C@@H]1CN(CC2CCOCC2)C(=O)OC12CCN(C1(C)CCN(C(=O)c3c(C)ncnc3C)CC1)CC2 | 100 | > 625 | 17 | 
7 | CCCCC1CN(CC2CCCCC2)C(=O)OC12CCN(C1CCN(C(=O)c3c(C)cccc3C)CC1)CC2 (centres undefined) | 30 | 29 | 307 | 
8 | CCCCC1CN(CC2CCOCC2)C(=O)OC12CCN(C1(C)CCN(C(=O)c3c(C)cc(C#N)nc3C)CC1)CC2 (racemic) | 24 | 4 | 42 | 
9 | CCCCC1N(CC2CCCCC2)C(=O)OC12CCN(C1CCN(C(=O)c3c(C)cccc3C)CC1)CC2 (centres undefined) | 51 | 125 | 675 | microsomal CLint [4]: 2000 µL/min/mg
10 | CCCC[C@H]1CN(CCC2CCOCC2)C(=O)OC12CCN(C1(C)CCN(C(=O)c3c(C)ncnc3C)CC1)CC2 |  | 8 | 37 | 
11 | CCCCC1CN(CC2CCOCC2)C(=O)OC12CCN(C1CCN(C(=O)c3c(C)cccc3C)CC1)CC2 (centres undefined) | 89 | 24 | 164 | 
12 | CCCCC1CN(CC2CCOCC2)C(=O)OC12CCN(C1CCN(C(=O)c3c(C)ncnc3C)CC1)CC2 (centres undefined) | 76 | 405 |  | 
13 | CCCCC1N(CC2CCCC2)C(=O)OC12CCN(C1CCN(C(=O)c3c(C)cccc3C)CC1)CC2 (centres undefined) | 18 | > 625 |  | 
14 | CCCCC1CN(CC2CCCCC2)C(=O)OC12CCN(C1CCN(C(=O)c3c(C)ncnc3C)CC1)CC2 (centres undefined) | 68 | 31 |  | clearance [7]: 119 µL/min/mg; clearance [8]: 80 µL/min/mg; bioavailability [9]: 43%; LBF [10]: 82%
15 | CCCC[C@H]1CN(CC2CCOCC2)C(=O)OC12CCN(C1(C)CCN(C(=O)c3c(C)cc[n+]([O-])c3C)CC1)CC2 | 80 | 52 |  | 
16 | CCCC1N(CC2CCCCC2)C(=O)OC12CCN(C1CCN(C(=O)c3c(C)cccc3C)CC1)CC2 (centres undefined) | 300 | > 625 |  | 
17 | CCCCC1N(CC2CCCCC2)C(=O)OC12CCN(C1(C)CCN(C(=O)c3c(C)ncnc3C)CC1)CC2 (centres undefined) | 7 | 46 | 162 | 
18 | CCCCC1CN(CC2CCOCC2)C(=O)OC12CCN(C1(C)CCN(C(=O)c3c(C)ncnc3C)CC1)CC2 (centres undefined) | 25 | 14 | 17 | 
19 | CCCC[C@H]1CN(CC2CCC(F)(F)CC2)C(=O)OC12CCN(C1(C)CCN(C(=O)c3c(C)ncnc3C)CC1)CC2 | 27 | 2 | 106 | 
20 | CCCC[C@H]1CN(CC2CCCCO2)C(=O)OC12CCN(C1(C)CCN(C(=O)c3c(C)ccnc3C)CC1)CC2 (some centres undefined) | 10 | 55 | 53 | 
21 | CCCC[C@H]1CN(CC2CCOCC2)C(=O)OC12CCN(C1(C)CCN(C(=O)c3c(C)nc(C(F)(F)F)nc3C)CC1)CC2 | 97 | 3 | 46 | 
22 | CCCC[C@H]1CN(C)C(=O)OC12CCN(C1(C)CCN(C(=O)c3c(C)cc(C#N)nc3C)CC1)CC2 | 22 | 12 | 28 | 
23 | CCCC[C@H]1CN(C2CCOCC2)C(=O)OC12CCN(C1(C)CCN(C(=O)c3c(C)ncnc3C)CC1)CC2 |  | 84 |  | 
24 | CCCCC1N(Cc2ccccc2)C(=O)OC12CCN(C1CCN(C(=O)c3c(C)cccc3C)CC1)CC2 (centres undefined) | 144 | > 625 |  | 
25 | CCCCC1N(CC2CCCCC2)C(=O)OC12CCN(C1CCN(C(=O)c3ccccc3C)CC1)CC2 (centres undefined) | 100 | > 625 |  | 
